Measured values taken from patent publication US7771652B2, “Combined use of an alkaline earth metal compound and a sterilizing agent to maintain osteoinduction properties of a demineralized bone matrix” (Novasterilis, Inc., priority 2008, dated 2010).

Test system: CFUs
Assay: Reduction in CFUs with additive-containing supercritical carbon dioxide sterilant fluid
Format: cell-based
Conditions: additive in supercritical carbon dioxide under sterilization temperature and pressure conditions
Excerpt: It has been observed that 6-log reductions in CFUs may be achieved in accordance with the present invention by subjecting materials to be sterilized under sterilization temperature and pressure conditions using an additive-containing supercritical carbon dioxide as a sterilant fluid, wherein the additive is carbonic anhydrase. Further, this process is enhanced where the sterilant fluid is agitated during the sterilization process.

carbonic anhydrase
reductions in CFUs: 6 log
